From patent US10004701B2, “Methods and compositions for treating infection” (UNIVERSITY OF ROCHESTER, priority 2012, dated 2018) come the findings set out here.

Structures can show the parent of a compound that is named as a salt. Where two headings read alike, the source gives them in different places.

Common to all, as to experiment: AK assay 384-well format, Prestwick library screening
One assay relates to E. faecium. The format is cell-based, Enterococcus faecium. The settings on record: 50 μM final drug concentration; for fold induction at 50 µM: Enterococcus faecium, 3 h.
Assay [1] relates to S. aureus strain USA300-0114. The class given is cell-based, Staphylococcus aureus. The settings on record: 50 μM final drug concentration; for fold induction at 50 µM: Staphylococcus aureus, USA300, 3 h.
For a further assay, the system named is K. pneumoniae. The format is cell-based, Klebsiella pneumoniae. The settings on record: 50 μM final drug concentration; for fold induction at 50 µM: Klebsiella pneumoniae, 3 h.
Assay [2] deals with A. baumannii strain 98-37-09. The format is cell-based, Acinetobacter baumannii. The settings on record: 50 μM final drug concentration; for fold induction at 50 µM: Acinetobacter baumannii, 983709, 3 h.
In the next assay the test system is P. aeruginosa. The class given is cell-based, Pseudomonas aeruginosa. The note with it: 50 μM final drug concentration; for fold induction at 50 µM: Pseudomonas aeruginosa, 3 h.
The test system of a further assay is E. cloacae. The class given is cell-based, Enterobacter cloacae. The settings on record: 50 μM final drug concentration; for fold induction at 50 µM: Enterobacter cloacae, 3 h.
A further assay has as its system E. coli. The class given is cell-based, Escherichia coli. The settings on record: 50 μM final drug concentration; for fold induction at 50 µM: Escherichia coli, 3 h.
The mark [3] stands for this setting: 384-well format, cutoff for positive-scoring molecules 3-fold increase, read-out: AK-based Prestwick Library Screening Results, E. faecium (increase in extracellular AK activity).
The mark [4] stands for this setting: 384-well format, cutoff for positive-scoring molecules 3-fold increase, read-out: AK-based Prestwick Library Screening Results, S. aureus (increase in extracellular AK activity).
Setting [5] is: 384-well format, cutoff for positive-scoring molecules 3-fold increase, read-out: AK-based Prestwick Library Screening Results, K. pneumoniae (increase in extracellular AK activity).
Setting [6] is: 384-well format, cutoff for positive-scoring molecules 3-fold increase, read-out: AK-based Prestwick Library Screening Results, A. baumannii (increase in extracellular AK activity).
Setting [7] is: 384-well format, cutoff for positive-scoring molecules 3-fold increase, read-out: AK-based Prestwick Library Screening Results, P. aeruginosa (increase in extracellular AK activity).
Setting [8] is: 384-well format, cutoff for positive-scoring molecules 3-fold increase, read-out: AK-based Prestwick Library Screening Results, E. cloacae (increase in extracellular AK activity).
Where [9] appears, read: 384-well format, cutoff for positive-scoring molecules 3-fold increase, read-out: AK-based Prestwick Library Screening Results, E. coli (increase in extracellular AK activity).
[10] abbreviates: planktonic, cutoff for positive-scoring molecules 3-fold increase, read-out: AK-based Prestwick Library Screening Results, E. faecium (fold increase in extracellular AK activity).
Setting [11] is: planktonic, cutoff for positive-scoring molecules 3-fold increase, read-out: AK-based Prestwick Library Screening Results, S. aureus (fold increase in extracellular AK activity).
Setting [12] is: planktonic, cutoff for positive-scoring molecules 3-fold increase, read-out: AK-based Prestwick Library Screening Results, K. pneumoniae (fold increase in extracellular AK activity).
Setting [13] is: planktonic, cutoff for positive-scoring molecules 3-fold increase, read-out: AK-based Prestwick Library Screening Results, A. baumannii (fold increase in extracellular AK activity).
The mark [14] stands for this setting: planktonic, cutoff for positive-scoring molecules 3-fold increase, read-out: AK-based Prestwick Library Screening Results, P. aeruginosa (fold increase in extracellular AK activity).
Where [15] appears, read: planktonic, cutoff for positive-scoring molecules 3-fold increase, read-out: AK-based Prestwick Library Screening Results, E. cloacae (fold increase in extracellular AK activity).
Where [16] appears, read: planktonic, cutoff for positive-scoring molecules 3-fold increase, read-out: AK-based Prestwick Library Screening Results, E. coli (fold increase in extracellular AK activity).
[17] abbreviates: 384-well format, cutoff for positive-scoring molecules 3-fold increase.

For Pyrantel tartrate, in the assay with E. faecium (planktonic E. faecium, 384-well, cutoff for positive-scoring molecules 3-fold increase), the “AK-based Prestwick Library Screening Results: E. faecium (increase in extracellular AK activity)” value is listed as 1.1. Also, in assay [1] (planktonic S. aureus, 384-well, cutoff for positive-scoring molecules 3-fold increase), the “AK-based Prestwick Library Screening Results: S. aureus (increase in extracellular AK activity)” value is on record as 1.2. For the same molecule, the “AK-based Prestwick Library Screening Results: K. pneumoniae (increase in extracellular AK activity)” value in the assay on K. pneumoniae (planktonic K. pneumoniae, 384-well, cutoff for positive-scoring molecules 3-fold increase) is recorded as 0.9. Further, the “AK-based Prestwick Library Screening Results: A. baumannii (increase in extracellular AK activity)” value in assay [2] (planktonic A. baumannii, 384-well, cutoff for positive-scoring molecules 3-fold increase) was 1.1. The “AK-based Prestwick Library Screening Results: P. aeruginosa (increase in extracellular AK activity)” value in the assay with P. aeruginosa (planktonic P. aeruginosa, 384-well, cutoff for positive-scoring molecules 3-fold increase) is 1.2. Moreover, the “AK-based Prestwick Library Screening Results: E. cloacae (increase in extracellular AK activity)” value in the assay on E. cloacae (planktonic E. cloacae, 384-well, cutoff for positive-scoring molecules 3-fold increase) is on record as 1.4. Further, the “AK-based Prestwick Library Screening Results: E. coli (increase in extracellular AK activity)” value in the assay with E. coli (planktonic E. coli, 384-well, cutoff for positive-scoring molecules 3-fold increase) is reported as 1.3.
As to `CN1CCN(CC(=O)N2c3ccccc3C(=O)Nc3cccnc32)CC1` [Pirenzepine dihydrochloride], the fold induction at 50 µM in the assay with E. faecium (setting [3]) amounted to 1.1; in assay [1] (setting [4]), 1; with K. pneumoniae (setting [5]) it was 1; in assay [2] (setting [6]), 1.1; with P. aeruginosa (setting [7]), 1; in the assay with E. cloacae (setting [8]), 1.4. In the assay on E. coli (setting [9]), the fold induction at 50 µM amounted to 1.4.
In the case of `CN1[C@@H]2C[C@@H](OC(=O)[C@H](CO)c3ccccc3)C[C@H]1[C@@H]1O[C@@H]12` [Scopolamine hydrochloride], the fold induction at 50 µM worked out at 1 with E. faecium ([…], read-out: AK-based Prestwick Library Screening Results, E. faecium (fold increase in extracellular AK activity)); 1.2 in assay [1] ([…], read-out: AK-based Prestwick Library Screening Results, S. aureus (fold increase in extracellular AK activity)); 1.1 in the assay on K. pneumoniae ([…], read-out: AK-based Prestwick Library Screening Results, K. pneumoniae (fold increase in extracellular AK activity)); 1.2 in assay [2] ([…], read-out: AK-based Prestwick Library Screening Results, A. baumannii (fold increase in extracellular AK activity)); 1.1 in the assay on P. aeruginosa ([…], read-out: AK-based Prestwick Library Screening Results, P. aeruginosa (fold increase in extracellular AK activity)); 1.5 in the assay on E. cloacae ([…], read-out: AK-based Prestwick Library Screening Results, E. cloacae (fold increase in extracellular AK activity)). The fold induction at 50 µM in the assay with E. coli ([…], read-out: AK-based Prestwick Library Screening Results, E. coli (fold increase in extracellular AK activity)) is 1.2.
On to `C[C@H]1O[C@@H](O[C@H]2[C@@H](O)C[C@H](O[C@H]3[C@@H](O)C[C@H](O[C@H]4CC[C@@]5(C)[C@H](CC[C@@H]6[C@@H]5C[C@@H](O)[C@]5(C)[C@@H](C7=CC(=O)OC7)CC[C@]65O)C4)O[C@@H]3C)O[C@@H]2C)C[C@H](O)[C@@H]1O` [Digoxin], for which the fold induction at 50 µM was 0.9 in the assay on E. faecium (planktonic E. faecium, […], read-out: AK-based Prestwick Library Screening Results, E. faecium (increase in extracellular AK activity)); 0.8 in assay [1] (planktonic S. aureus, […], read-out: AK-based Prestwick Library Screening Results, S. aureus (increase in extracellular AK activity)); 0.7 in the assay on K. pneumoniae (planktonic K. pneumoniae, […], read-out: AK-based Prestwick Library Screening Results, K. pneumoniae (increase in extracellular AK activity)); 0.9 in assay [2] (planktonic A. baumannii, […], read-out: AK-based Prestwick Library Screening Results, A. baumannii (increase in extracellular AK activity)); 0.8 in the assay on P. aeruginosa (planktonic P. aeruginosa, […], read-out: AK-based Prestwick Library Screening Results, P. aeruginosa (increase in extracellular AK activity)); 1.2 in the assay on E. cloacae (planktonic E. cloacae, […], read-out: AK-based Prestwick Library Screening Results, E. cloacae (increase in extracellular AK activity)). In addition, in the assay on E. coli (planktonic E. coli, […], read-out: AK-based Prestwick Library Screening Results, E. coli (increase in extracellular AK activity)), the fold induction at 50 µM stood at 0.8.
For the molecule `C[C@]12CC[C@@H]3c4ccc(O)cc4CC[C@H]3[C@@H]1CCC2=O` [Estrone], the fold induction at 50 µM with E. faecium (setting [10]) was found to be 0.8; in assay [1] (setting [11]) it was 0.7; in the assay on K. pneumoniae (setting [12]), 0.7; in assay [2] (setting [13]) it was 0.8; in the assay on P. aeruginosa (setting [14]) it was 0.8; with E. cloacae (setting [15]), 1.4. Moreover, the fold induction at 50 µM in the assay on E. coli (setting [16]) worked out at 0.8.
Turning to `O=C(C1CCCCC1)N1CC(=O)N2CCc3ccccc3C2C1` (stereo not shown) [Praziquantel], the fold induction at 50 µM was 1 in the assay on E. faecium (setting [3]); 0.8 in assay [1] (setting [4]); 0.6 in the assay on K. pneumoniae (setting [5]); 0.7 in assay [2] (setting [6]); 0.6 in the assay with P. aeruginosa (setting [7]); 0.7 with E. cloacae (setting [8]). In the assay on E. coli (setting [9]), the fold induction at 50 µM came out at 0.9.
Take `CC(NC(C)(C)C)C(=O)c1cccc(Cl)c1` (stereo not shown) [Bupropion hydrochloride]: the fold induction at 50 µM in the assay with E. faecium (setting [3]) was found to be 1; in assay [1] (setting [4]), 0.5; with K. pneumoniae (setting [5]) it was 0.5; in assay [2] (setting [6]) it was 0.5; in the assay with P. aeruginosa (setting [7]) it was 0.5; in the assay with E. cloacae (setting [8]), 0.5. Moreover, the fold induction at 50 µM in the assay on E. coli (setting [9]) was 0.5.
For `COc1cc2cc3c4cc(OC)c(OC)cc4cc[n+]3c(C)c2cc1OC.O.[Cl-]` [Coralyne chloride hydrate], the “AK-based Prestwick Library Screening Results, E. faecium (increase in extracellular AK activity)” value in the assay on E. faecium (planktonic E. faecium, cutoff for positive-scoring molecules 3-fold increase) is recorded as 0.9. The “AK-based Prestwick Library Screening Results, S. aureus (increase in extracellular AK activity)” value in assay [1] (planktonic S. aureus, cutoff for positive-scoring molecules 3-fold increase) worked out at 0.4. For the same molecule, the “AK-based Prestwick Library Screening Results, K. pneumoniae (increase in extracellular AK activity)” value in the assay on K. pneumoniae (planktonic K. pneumoniae, cutoff for positive-scoring molecules 3-fold increase) was 0.6. In addition, the “AK-based Prestwick Library Screening Results, A. baumannii (increase in extracellular AK activity)” value in assay [2] (planktonic A. baumannii, cutoff for positive-scoring molecules 3-fold increase) is on record as 0.8. Also, the “AK-based Prestwick Library Screening Results, P. aeruginosa (increase in extracellular AK activity)” value in the assay on P. aeruginosa (planktonic P. aeruginosa, cutoff for positive-scoring molecules 3-fold increase) was 0.8. In the assay on E. cloacae (planktonic E. cloacae, cutoff for positive-scoring molecules 3-fold increase), the “AK-based Prestwick Library Screening Results, E. cloacae (increase in extracellular AK activity)” value stood at 1.1. Moreover, the “AK-based Prestwick Library Screening Results, E. coli (increase in extracellular AK activity)” value in the assay with E. coli (planktonic E. coli, […]) was found to be 0.9.
Turning to `Cn1c(=O)c2[nH]cnc2n(C)c1=O` [Aminophylline], the fold induction at 50 µM in the assay on E. faecium (setting [10]) came to 0.9; in assay [1] (setting [11]) it was 0.6; with K. pneumoniae (setting [12]), 0.6; in assay [2] (setting [13]) it was 0.7; in the assay with P. aeruginosa (setting [14]), 0.8; with E. cloacae (setting [15]) it was 0.8. In addition, the fold induction at 50 µM in the assay with E. coli (setting [16]) came out at 0.6.
On to `CC(C)(CO)[C@@H](O)C(=O)NCCCO` [Panthenol (D)], for which the “AK-based Prestwick Library Screening Results, E. faecium (increase in extracellular AK activity)” value in the assay with E. faecium (setting [17]) is recorded as 0.8. Also, the “AK-based Prestwick Library Screening Results, S. aureus (increase in extracellular AK activity)” value in assay [1] (setting [17]) turned out to be 0.6. Further, in the assay on K. pneumoniae (setting [17]), the “AK-based Prestwick Library Screening Results, K. pneumoniae (increase in extracellular AK activity)” value worked out at 0.7. In addition, the “AK-based Prestwick Library Screening Results, A. baumannii (increase in extracellular AK activity)” value in assay [2] (setting [17]) turned out to be 0.8. Moreover, in the assay with P. aeruginosa (setting [17]), the “AK-based Prestwick Library Screening Results, P. aeruginosa (increase in extracellular AK activity)” value is 0.7. Moreover, in the assay with E. cloacae (setting [17]), the “AK-based Prestwick Library Screening Results, E. cloacae (increase in extracellular AK activity)” value stood at 1.0. For the same molecule, the “AK-based Prestwick Library Screening Results, E. coli (increase in extracellular AK activity)” value in the assay with E. coli (setting [17]) is 0.9.
